Marks after values point to notes of the source that are not given here.
Assays:
Type in all cases: cell-based
[1] = system: loblolly pine (Pinus taeda) embryogenic cell lines; experiment: Percent increase in fresh weight of pine embryogenic cell lines retrieved from cryopreservation on post-cryopreservation recovery medium (Examples 1 and 2); details: for Additional Culture Growth on DCR1 + ABA: 30 mg/l ABA vs medium without ABA
Description: Each embryogenic culture was cryopreserved as follows. Embryogenic tissue (7 to 14 days since the last subculture) was dispersed in liquid DCR1 medium (the DCR1 medium of Table I without the GELRITE) which contained 0.4 molar sorbitol as described in U.S. Pat. No. 5,506,136. The amount of embryogenic tissue used was sufficient to result in a 40% suspension (i.e., 4 ml volume of embryogenic tissue added to 6 ml of liquid medium). An Erlenmeyer flask containing the suspension was incubated for 24 hours in the dark on a gyrotory shaker (100 rpm), and then placed on ice. Five aliquots of the cryoprotective chemical dimethyl sulfoxide (DMSO) were aseptically added to the suspension to bring the final concentration of DMSO to 10% (vol/vol). One milliliter aliquots of the suspension containing DMSO were then transferred to 2 ml NALGENE® cryogenic vials (manufactured by the Nalge Co.), placed in programmable freezer (Model 9000 manufactured by Gordinier Electronics) and cooled to −35° C. at a rate of 0.33° C. per minute. The cultures were cryopreserved by immersing the cryogenic vials in liquid nitrogen inside a cryogenic storage tank (Model #CY50945 manufactured by Thermolyne, Inc.). The cultures remained in cryogenic storage for at least 36 months prior to retrieval.
The cryogenic vials were retrieved from the cryogenic storage tank and placed in 44° C. water until the ice crystals in the frozen embryogenic cultures were melted. The thawed culture from each cryogenic vial was aseptically pipetted and dispensed onto a sterile 7 cm×7 cm NITEX nylon 35 μm pore size membrane (commercially available from Sefar, Inc.) which had been placed on top of two sterile filter papers (Whatman no. 2 commercially available from Whatman International Ltd.) to absorb excess liquid from the culture and membrane. Each nylon membrane containing embryogenic culture was then transferred to a DCR1 medium which served as a temporary recovery medium for 24 hours in order to lower the concentration of cryoprotective chemicals and osmotic agents contained in the culture.
Each nylon membrane containing embryogenic tissue was then transferred to one of two post-cryopreservation medium treatments. One treatment was DCR1 medium without ABA. The other treatment was DCR1 medium with 30 mg/l of ABA. The initial fresh weight (FW0) of the embryogenic tissue was measured aseptically at this time. There were 3 plates (each derived from an individual cryogenic vial) per treatment and cell line. The embryogenic cultures on membranes were transferred after 24 hours, and thereafter, every 14 days to a new plate of the same medium. The culture environment during post-cryopreservation recovery and growth was 23° C. in the dark. At 25 days after retrieval from cryogenic storage the final fresh weight (FWF) of the proliferating embryogenic culture was measured. The growth of the embryogenic tissue during the post-cryopreservation treatments was calculated as a percent increase in fresh weight relative to the initial fresh weight as follows: ((FWF−FW0)/FW0)*100.
Each cell line was cryopreserved as follows. The liquid suspension cultures (7 days since the last subculture) were aseptically centrifuged at 1500 rpm for 10 minutes (400 g-force) to separate the embryogenic tissue from the liquid medium. The supernatant medium was removed from the embryogenic tissue. To the remaining volume of centrifuged embryogenic tissue, was added an equal volume of liquid DCR1 medium containing 0.8 molar sorbitol, so that the final sorbitol concentration was 0.4 molar. An Erlenmeyer flasks containing each suspension was incubated for 24 hours in the dark on a gyrotory shaker (100 rpm), and then placed on ice. The cryoprotective chemical DMSO was added to the chilled cultures at one time to bring the final concentration of DMSO to 10% (vol/vol). […]

[2] = system: loblolly pine cell lines (G-05, K-12, E-117 and O-72); experiment: Mean culture fresh weight of embryogenic cultures retrieved from cryopreservation on post-cryopreservation recovery medium (Example 3); details: for % Increase of average culture fresh weight over control without ABA: all seven cell lines; for Mean Culture Fresh Weight, average of cell lines: average of all seven cell lines (loblolly and pitch×loblolly hybrid); for Mean Culture Fresh Weight: 28 days after retrieval
Text: (§1) Five different pine embryogenic cell lines chosen at random from a long-term cryogenic storage bank were initiated, grown as liquid embryogenic suspension cultures, and cryopreserved via the methods described in Examples 1 and 2. The five cell lines included: one pitch×loblolly pine interspecies hybrid cell line (AA-24) and four loblolly pine cell lines (G-05, K-12, E-117 and O-72). Also, two additional pitch×loblolly pine F1 hybrid cell lines (Q-01 and Q-39) were initiated, grown as liquid embryogenic suspension cultures, and cryopreserved via the methods described in Examples 1 and 2 except that the initiation and maintenance media contained 10.0 mg/l of ABA (as taught in U.S. Pat. No. 5,856,191). The seven cell lines were retrieved from cryogenic storage, thawed, and transferred, via the procedure described in Example 2. Each cell line was subjected to three post-cryopreservation medium treatments. The first treatment was a control (i.e., DCR1 medium without ABA), the second treatment was DCR1 medium with 10 mg/l of ABA, and the third treatment was DCR1 medium with 30 mg/l of ABA. There were four plates (each derived from an individual cryogenic vial) per treatment and cell line.
(§2) The embryogenic cultures on membranes were transferred after 24 hours from the temporary recovery medium onto the post-cryopreservation medium and thereafter, every 14 days to a new plate of the same post-cryopreservation medium. The culture environment during post-cryopreservation recovery and growth was 23° C. in the dark. At 28 days after retrieval from cryogenic storage the final fresh weight of the proliferating embryogenic culture was measured. The data were analyzed using the SAS GLM ANOVA statistical software program (Release 6.12 commercially available from the SAS Institute, Inc.), and the results are shown in Table III below.

[3] = system: pitch×loblolly pine interspecies hybrid cell lines (AA-24, Q-01, Q-39); experiment: as above
Text: as §1, §2

[4] = system: loblolly pine embryogenic cell lines; experiment: Yield of stage 3 somatic embryos from embryogenic cultures retrieved from cryopreservation (Example 4); details: for Total Number of Somatic Embryos Harvested: recovered on 30 mg/l ABA, nine weeks on embryo development medium
Text: The purpose of this experiment was to determine whether addition of ABA to the post-cryopreservation culture medium improved the yield of somatic embryos harvested from the cultures after they were retrieved from cryogenic storage. The six loblolly pine cell lines retrieved from cryogenic storage in Example 1 were used in this experiment. Embryogenic tissue from each cell line was dispersed onto nylon membranes using liquid DCR1 medium (formulation in Table 1 without the GELRITE). Four ml of embryogenic culture retrieved from cryogenic storage of each cell line and treatment (both the no ABA and the 30 mg/l ABA post-cryopreservation recovery medium) was added to 5 ml of liquid DCR1 medium and dispersed by agitation. One ml aliquots of the suspension were dispensed using a sterile 5-ml pipette with a cotton plug. Each 1 ml aliquot was transferred to the surface of a sterile 4 cm nylon membrane positioned on top of two sterile Whatman No. 2 filter papers in the bottom of an empty 15×100 mm sterile plastic culture plate. The nylon membranes with the dispersed embryogenic cultures were placed on either DCR1 medium containing 30 mg/l ABA or the same medium without any ABA depending on their respective post-cryopreservation recovery medium treatments from which they were derived. […] The tissue on the nylon membranes was cultured for 5-6 days at 23° C. in the dark to induce proliferation from the newly dispersed cultures. The nylon membranes with tissue were then transferred to an embryo development medium (see Table IV below) as described in U.S. Pat. No. 5,731,204 (Rutter et al.), to test the yield of stage 3 cotyledonary somatic embryos. The plates with membranes containing the embryogenic cultures were incubated in the dark at 23° C. The nylon membranes with the embryogenic cultures were transferred to new plates containing the same fresh embryo development medium every three weeks. After a total of nine weeks, the number of stage 3 embryos was counted on each membrane, and the data were analyzed using SAS GLM ANOVA statistical software.

[5] = system: loblolly pine (Pinus taeda) embryogenic cell lines; experiment: Percent increase in fresh weight of pine embryogenic cell lines retrieved from cryopreservation on post-cryopreservation recovery medium (Examples 1 and 2); details: DCR1 + 30 mg/l ABA, 26 days after retrieval
[6] = all six cell lines A1-A6, 30 mg/l ABA

With `CC1=CC(=O)CC(C)(C)[C@@]1(O)/C=C/C(C)=C\C(=O)O` [ABA, abscisic acid] the “Additional Culture Growth on DCR1 + ABA, overall” value ([1]; Average and Increase lines, all ten cell lines, 30 mg/l ABA) was “yes”, the “Increase of overall average percent increase in fresh weight on medium with ABA compared to medium without ABA” value ([1]; all ten cell lines, 30 mg/l ABA) was 70% and the “Average Percent Increase in Fresh Weight, average of all ten cell lines” value ([1]; average of cell lines A1-A6 and B1-B4, DCR1 + 30 mg/l ABA) was 2469%. The “Additional Culture Growth on DCR1 + ABA” value ([1]; cell line A1) was “yes”, the “Average Percent Increase in Fresh Weight” value ([1]; cell line A1, DCR1 + 30 mg/l ABA, 25 days after retrieval) was 270% and the “Additional Culture Growth on DCR1 + ABA” value ([1]; cell line A2) was “yes”. For the same compound, the “Average Percent Increase in Fresh Weight” value ([1]; cell line A2, DCR1 + 30 mg/l ABA, 25 days after retrieval) was 7484%, the “Additional Culture Growth on DCR1 + ABA” value ([1]; cell line A3) was “yes” and the “Average Percent Increase in Fresh Weight” value ([1]; cell line A3, DCR1 + 30 mg/l ABA, 25 days after retrieval) was 4065%. The “Total fresh weight of embryogenic tissue from three cryogenic vials” value ([1]; cell line A3, medium with ABA (30 mg/l)) was 5.17 grams, the “Additional Culture Growth on DCR1 + ABA” value ([1]; cell line A4) was “yes” and the “Average Percent Increase in Fresh Weight” value ([1]; cell line A4, DCR1 + 30 mg/l ABA, 25 days after retrieval) was 1652%. The “Additional Culture Growth on DCR1 + ABA” value ([1]; cell line A5) was “yes”, the “Average Percent Increase in Fresh Weight” value ([1]; cell line A5, DCR1 + 30 mg/l ABA, 25 days after retrieval) was 6479% and the “Additional Culture Growth on DCR1 + ABA” value ([1]; cell line A6) was “yes”. The “Average Percent Increase in Fresh Weight” value ([1]; cell line A6, DCR1 + 30 mg/l ABA, 25 days after retrieval) was 1221%, the “Additional Culture Growth on DCR1 + ABA” value ([1]; cell line B1) was “no” and the “Additional Culture Growth on DCR1 + ABA” value ([1]; cell line B2) was “yes”. For the same compound, the “Additional Culture Growth on DCR1 + ABA” value ([1]; cell line B3) was “yes”, the “Average Percent Increase in Fresh Weight” value ([1]; cell line B3, DCR1 + 30 mg/l ABA, 26 days after retrieval) was 3259% and the “Additional Culture Growth on DCR1 + ABA” value ([1]; cell line B4) was “yes”. For the same compound, the “% Increase of average culture fresh weight over control without ABA” value ([2]; 10 mg/l ABA) was 35%, the “% Increase of average culture fresh weight over control without ABA” value ([2]; 30 mg/l ABA) was 52%^a and the “Mean Culture Fresh Weight, average of cell lines” value ([2]; 10 mg/l ABA) was 1.86 g. For the same compound, the “Mean Culture Fresh Weight, average of cell lines” value ([2]; 30 mg/l ABA) was 2.10^a g, the “Mean Culture Fresh Weight” value ([2]; cell line E-117, 10 mg/l ABA) was 0.38^a g and the “Mean Culture Fresh Weight” value ([2]; cell line E-117, 30 mg/l ABA) was 0.33 g. The “Mean fresh weight higher than control treatment without ABA” value ([2]; cell line G-05, 10 mg/l ABA) was 52%, the “Mean Culture Fresh Weight” value ([2]; cell line G-05, 10 mg/l ABA) was 3.82^a g and the “Mean fresh weight higher than control treatment without ABA” value ([2]; cell line G-05, 30 mg/l ABA) was 48%. The “Mean Culture Fresh Weight” value ([2]; cell line G-05, 30 mg/l ABA) was 3.73 g, the “Mean Culture Fresh Weight” value ([2]; cell line K-12, 10 mg/l ABA) was 0.55 g and the “Mean Culture Fresh Weight” value ([2]; cell line K-12, 30 mg/l ABA) was 1.09^a g. For the same compound, the “Mean Culture Fresh Weight” value ([2]; cell line O-72, 10 mg/l ABA) was 0.09 g, the “Mean Culture Fresh Weight” value ([2]; cell line O-72, 30 mg/l ABA) was 0.10^a g and the “Mean Culture Fresh Weight” value ([3]; cell line AA-24, 10 mg/l ABA, 28 days after retrieval) was 5.22 g. For the same compound, the “Mean Culture Fresh Weight” value ([3]; cell line AA-24, 30 mg/l ABA, 28 days after retrieval) was 5.45^a g, the “Mean Culture Fresh Weight” value ([3]; cell line Q-01 (initiated and maintained with 10.0 mg/l ABA), 10 mg/l ABA, 28 days) was 2.91^b g and the “Mean Culture Fresh Weight” value ([3]; cell line Q-01 (initiated and maintained with 10.0 mg/l ABA), 30 mg/l ABA, 28 days) was 3.81^ab g. For the same compound, the “Mean Culture Fresh Weight” value ([3]; cell line Q-39 (initiated and maintained with 10.0 mg/l ABA), 10 mg/l ABA, 28 days) was 0.01 g, the “Mean Culture Fresh Weight” value ([3]; cell line Q-39 (initiated and maintained with 10.0 mg/l ABA), 30 mg/l ABA, 28 days) was 0.17 g and the “% Increase of total number of somatic embryos harvested over control without ABA” value [4, 6] was 332%. The “Total Number of Somatic Embryos Harvested, total of the 6 cell lines” value [4, 6] was 588, the “Total Number of Somatic Embryos Harvested” value ([4]; cell line A1) was 404 and the “Total Number of Somatic Embryos Harvested” value ([4]; cell line A2) was 82. The “Total Number of Somatic Embryos Harvested” value ([4]; cell line A3) was 0, the “Total Number of Somatic Embryos Harvested” value ([4]; cell line A4) was 43 and the “Total Number of Somatic Embryos Harvested” value ([4]; cell line A5) was 15. The “Total Number of Somatic Embryos Harvested” value ([4]; cell line A6) was 44, the “Average Percent Increase in Fresh Weight” value ([5]; cell line B1) was 195% and the “Average Percent Increase in Fresh Weight” value ([5]; cell line B2) was 29%. The “Average Percent Increase in Fresh Weight” value ([5]; cell line B4) was 34%.
